From patent US20260076937A1, “COMPOSITION FOR PREVENTING OR TREATING AUTOIMMUNE DISEASES COMPRISING A BCAT1 INHIBITOR” (Seoul National University R&DB Foundation, priority 2024, published 2026)

Tested on: human CD4+ memory T cells
Experiment: scRNA-seq analysis of CD4+ memory T cells
Assay type: cell-based
Settings: Bi2 10 μM
Procedure: Freshly purified CD4^+ memory T-cells were stimulated for 72 hours with anti-CD3/CD28 coated microbeads in the absence or presence of Bi2. Samples from four different donors were multiplexed for 30 minutes at 4° C. with a hashtag oligo. Totalseq™ anti-human hashtag antibody (Biolegend, USA) was then used to perform in three experimental conditions (TCR-stimulated cells with Bi2, TCR-stimulated cells without Bi2, and cells without TCR stimulation). Tagged cells were pooled and loaded into a Chromium system (10× Genomics, Pleasanton, CA) and encapsulated into a single droplet targeting about 40,000 cells for each GEM (Gel Beads-in-emulsion). Chromium Single Cell 5′ Kit (10× Genomics) was used to generate scRNA-seq and TCR libraries according to the manufacturer's instructions. Demultiplexing and read alignment to the bound human genome was performed using Cell Ranger (v6.1.2).

## O=C(NNS(=O)(=O)c1ccccc1C(F)(F)F)c1cc2cc(Cl)ccc2o1 [Bi2, BCATc inhibitor 2]
72 hours TCR stimulation
  HIF1A expression in activated Th17 cells: down-regulated
  activated Th17 cell population (clusters 8, 13, 15): decreased
Pathway enrichment of DEGs
  T-cell activation, cytokine signaling and cytokine production pathways in activated Th17 subset: decrease
